Assays:
[1] = test system: immortalized human microvascular endothelial HMEC-1 cells; assay: Cytotoxicity assay (cell proliferation); format: cell-based; details: 10^−6 M (+VEGF 10 ng/mL), 72 hours
Experimental: The immortalized human microvascular endothelial cell line HMEC-1, characterized by Ades, et al., (Journal of Investigative Dermatology 1992, 99: 683–690), was maintained in Medium 199, supplemented with 10% heat-inactivated fetal bovine serum (FBS), penicillin (50 IU/mL) and hydrocortisone (100 μg/mL). Cells were routinely grown in 75 cm2 gelatin-coated tissue culture flasks and kept in a humidified atmosphere of 5% CO2 at 37° C. Cells were harvested with a solution of 0.25% trypsin-0.03% EDTA when they were in long phase of growth and maintained at the above-described culture conditions for all experiments.
In vitro chemosensitivity testing was performed on single-cell suspensions of HEMC-1 cells (5×10^3 cells/well) plated in 96-well gelatin-coated sterile plastic plates and allowed to attach overnight. […] The treatments were scheduled so that each peptide was represented by at least nine wells. At the end of the experiment, cells were rinsed with phosphate buffered saline (PBS), harvested with trypsin/EDTA, and counted with an hemocytometer. Results are expressed as the percentage of cell proliferation versus controls and are the mean of three separate experiments±S.E repeated thrice.

[2] = test system: human placental vessel explants (capillaries sprouts); assay: In vitro cultures of human placental vessels, sprouting index by image analysis; format: cell-based; details: 10^−6 M, treated every two days for 28 days
Experimental: The experimental procedure described by Brown et al., (Laboratory Investigation 1996, 75: 539–555) was followed and modified in the present study. Immediately after the spontaneous delivery, the placenta was collected in sterile conditions and superficial blood vessels, approximately […] in diameter and from 1 to 5 cm in length, were excised. Vessel explants were placed in phosphate buffered saline (PBS) solution containing […] of amphotericin B and 50 μg/mL of gentamycin and were cut into approximately 1-mm fragments. […]
The image analysis procedures described by Bocci et al., (Cancer Chemotherapy Pharmacology 1999, 43: 205–212), were adopted for the present study. […] The true color image analysis software package KS 300 v.1.2 (Kontron Elektronik GmbH, Eching, Germany) was run for interactive manipulation, quantification of the images and data collection. […] In the fibrin culture of placental vessel explants the mean gray level of the sprouting area was measured and the sprouting index (SI) was defined as: Sprouting index=((sprouting area/mean gray level of sprouting area)/perimeter of explant)×100. Results are expressed as the percentage of sprouting index+/−S.E. versus controls.

Cc1cc(C)c(/C=C2\C(=O)Nc3ccccc32)[nH]1 [SU5416, 3-((2,4-dimethylpyrrol-5-yl)methylidenyl)-2-indolinone]
cell growth block [1]: 56.2% | sprouting index (SI) as compared to untreated controls [2]: 32.92±9.7%
